Assay results published in patent US4192871A, “Chemical compounds” (Glaxo Laboratories Limited, priority 1976, dated 1980).

Assay: anaesthetic activity tests (intravenous administration)
Type: in vivo
Conditions: compound and salts
From the text: In the tests we have carried out, the compounds of the invention have been shown generally to be good anaesthetics, usually giving instantaneous induction of anaesthesia when administered intravenously. […] The compounds of the invention are of use for inducing anaesthesia which is to be maintained for example by an inhalation anaesthetic, such as ether, halothane, nitrous oxide or trichloroethylene. The compounds may also be capable of maintaining anaesthesia to a sufficient degree to enable surgical operations to be conducted without the aid of an inhalation anaesthetic, the anaesthesia being maintained if necessary by repeated or continuous administration. The compounds may have other desirable central nervous system depressant activities, for example they may be of use as sedatives.

Structure (SMILES)	activity shown in our tests (preference grade)	other results
CCO[C@H]1C[C@@]2(C)[C@@H](CC[C@@H]3[C@@H]2[C@@H](OC(=O)CNC(C)CC(C)C)C[C@]2(C)[C@@H](C(C)=O)CC[C@@H]32)C[C@@H]1O (stereo partly drawn) [compound 29, 2β-ethoxy-3α-hydroxy-11β-N-1',3'-dimethylbutylaminoacetoxy-5α-pregnan-20-one]	particularly preferred on account of the activity shown in our tests	–
CCN(CC(=O)O[C@H]1C[C@]2(C)[C@@H](C(C)=O)CC[C@H]2[C@@H]2CC[C@H]3C[C@H](O)CC[C@]3(C)[C@H]21)C(C)CC(C)C (stereo partly drawn) [compound 23, 11β-N-1',3'-dimethylbutyl-N-ethylaminoacetoxy-3α-hydroxy-5α-pregnan-20-one]	particularly preferred on account of the activity shown in our tests	–
CCO[C@H]1C[C@@]2(C)[C@@H](CC[C@@H]3[C@@H]2[C@@H](OC(=O)CN(CC)CC)C[C@]2(C)[C@@H](C(C)=O)CC[C@@H]32)C[C@@H]1O [Example 101, 2β-Ethoxy-11β-diethylaminoacetoxy-3α-hydroxy-5α-pregnan-20-one]	–	activity shown in our tests (preference grade) (listed as Compound No. 6): especially preferred
CCCCN(CC)CC(=O)O[C@H]1C[C@]2(C)[C@@H](C(C)=O)CC[C@H]2[C@@H]2CC[C@H]3C[C@H](O)CC[C@]3(C)[C@H]21 [Example 115, 11β-(N-Butyl-N-ethylaminoacetoxy)-3α-hydroxy-5α-pregnan-20-one]	–	activity shown in our tests (preference grade) (listed as Compound No. 12): especially preferred
